According to US10144738B2, “Pyrazolo[1,5-A]PYRAZIN-4-YL derivatives” (Pfizer Inc., priority 2016, dated 2018):

Legend:
JAK2 = JAK2 (Homo sapiens (Human), UniProt O60674); assay: JAK Caliper enzyme assay at 1 mM ATP (JAK2); assay type: biochemical; settings: recombinant human kinase domain, Caliper mobility shift
Method: (§1) Compounds of the invention were evaluated by in vitro methods to determine their respective ability to inhibit the JAK kinases (TYK2, JAK1, JAK2, JAK3).
(§2) The human JAK inhibitory activity was determined by using a microfluidic assay to monitor phosphorylation of a synthetic peptide by the recombinant human kinase domain of each of the four members of the JAK family, JAK1, JAK2, JAK3 and TYK2. […] Each assay condition was optimized for enzyme concentration and room temperature incubation time to obtain a conversion rate of 20% to 30% phosphorylated peptide product. Reactions were terminated by the addition of stop buffer containing EDTA. Utilizing the LabChip 3000 mobility shift technology (Caliper Life Science), each assay reaction was sampled to determine the level of phosphorylation. This technology is separation-based, allowing direct detection of fluorescently labeled substrates and products. Separations are controlled by a combination of vacuum pressure and electric field strength optimized for each peptide substrate.
(§3) JAK Caliper Enzyme Assay at 1 mM ATP
(§4) Compounds were added to a 384-well plate. Reaction mixtures contained 10 mM HEPES, pH 7.4, 10 mM MgCl2, 0.01% BSA, 0.0005% Tween 20, 1 mM ATP and 1 μM peptide substrate. […] The assays were initiated by the addition of 20 nM JAK1, 1 nM JAK2, 1 nM JAK or 1 nM TYK2 enzyme and were incubated at room temperature for three hours for JAK1, 60 minutes for JAK2, 75 minutes for JAK3 or 135 minutes for TYK2. Enzyme concentrations and incubation times were optimized for each new enzyme preps and were modified slightly over time to ensure 20% to 30% phosphorylation. The assays were stopped with 15 μL of 180 mM HEPES, pH 7.4, 20 mM EDTA, and 0.2% Coating Reagent 3. The assay plates were placed on a Caliper Life Science LC3000 instrument, and each well was sampled using appropriate separation conditions to measure the unphosphorylated and phosphorylated peptide.
(§5) The data was collected using the HTS Well Analyzer software from Caliper Life Sciences. The data output for data analysis is the percent product converted calculated on peak height (Equation 1). % product converted=100*((product)/(product+substrate)) Equation 1: […]
(§6) The percent effect at each compound concentration was calculated based on the positive and negative control well contained within each assay plate (Equation 2). […] The negative control wells contained DMSO alone (at the same concentration as the compound wells) that was used to set the baseline activity in the assay (i.e., uninhibited JAK1, JAK2, JAK3 or TYK2). % effect=100*((sample well−negative control)/(positive control-negative control)) Equation 2: The percent effect was plotted against the compound concentration compound.

JAK3 = JAK3 (Homo sapiens (Human), UniProt P52333); assay: JAK Caliper enzyme assay at 1 mM ATP (JAK3); assay type: biochemical; settings: recombinant human kinase domain, Caliper mobility shift
Method: as §1, §2, §3, §4, §5, §6

[1] = system: IL-12 induced STAT4 phosphorylation (IL-12 signals through TYK2 and JAK2); assay: Human Whole Blood IL-12 Induced STAT4 Phosphorylation Assay; assay type: cell-based; settings: Lymphocyte, IL-12 5 ng/mL, pSTAT4 in lymphocytes by flow cytometry, read-out: HWB IL-12 IC50
Method: Selected compounds were assessed for their ability to inhibit IL-12 signaling in a human whole blood flow cytometry assay. IL-12 signals through TYK2 and JAK2. Human Whole Blood IL-12 Induced STAT4 Phosphorylation Assay
Test articles were prepared as 30 mM stocks in DMSO. An 11-point 2.5 dilution series was created in DMSO with a top concentration of 10 mM. Further dilution was done by adding 4 μL of the above test article solutions into 96 μL of PBS with a top concentration of 400 μM. […] Blood was warmed to 37° C. prior to use. Human whole blood was aliquoted ([…]) in 96-well, deep-well, V-bottom plates and treated with compounds at 11 different concentrations (0.2% DMSO final) at 37° C. for 60 minutes. This was followed by a challenge with IL-12 ([…]; final, 5 ng/mL) for 15 minutes. Samples were treated with warm 1× Lyse/Fix buffer ([…]) to terminate activation and further incubated at 37° C. for 20 minutes to lyse red blood cells. Plates were centrifuged at 300×g for 5 minutes, supernatant was aspirated, and cells were washed with […] of staining buffer (PBS containing 0.5% fetal bovine serum and 0.01% sodium azide). The washed cell pellets were resuspended with […] of pre-chilled 90% methanol, and incubated at 4° C. for 30 minutes. Plates were centrifuged at 300×g for 5 minutes, supernatant containing 90% methanol was aspirated, and cells were washed with […]/well of staining buffer. Cell pellets were resuspended in staining buffer containing anti-pSTAT4-AlexaFluor647 (1 to 150 dilution, […]), and incubated at room temperature in the dark overnight.
Samples were transferred to 96-well U-bottom plates and flow cytometric analysis was performed on a FACSCalibur or LSRFortessa equipped with a HTS plate loader (BD Biosciences). The lymphocyte population was gated for histogram analysis of pSTAT4. Background fluorescence was defined using unstimulated cells and a gate was placed at the foot of the peak to include ˜0.5% gated population. The histogram statistical analysis was performed using CellQuestO Pro version 5.2.1 (BD Biosciences) or FACSDiva version 6.2 (BD Biosciences) software. Relative fluorescence unit (RFU), which measures the level of phospho STAT4, was calculated by multiplying the percent positive population and its mean fluorescence. Data from 11 compound concentrations (singlicate at each concentration) was normalized as a percentage of control based on the formula: % of Control=100×(A−B)/(C−B) where A is the RFU from wells containing compound and IL-12, B is the RFU from wells without IL-12 and compound (minimum fluorescence) and C is the RFU from wells containing only IL-12 (maximum fluorescence). Inhibition curves and IC50 values were determined using the Prism version 5 software (GraphPad, La Jolla, Calif.).

TYK2 = TYK2 (Homo sapiens (Human), UniProt P29597); assay: JAK Caliper enzyme assay at 1 mM ATP (TYK2); assay type: biochemical; settings: recombinant human kinase domain, Caliper mobility shift
Method: as §1, §2, §3, §4, §5, §6

JAK1 = JAK1 (Homo sapiens (Human), UniProt P23458); assay: JAK Caliper enzyme assay at 1 mM ATP (JAK1); assay type: biochemical; settings: recombinant human kinase domain, Caliper mobility shift
Method: Compounds of the invention were evaluated by in vitro methods to determine their respective ability to inhibit the JAK kinases (TYK2, JAK1, JAK2, JAK3). The human JAK inhibitory activity was determined by using a microfluidic assay to monitor phosphorylation of a synthetic peptide by the recombinant human kinase domain of each of the four members of the JAK family, JAK1, JAK2, JAK3 and TYK2. […] Reactions were terminated by the addition of stop buffer containing EDTA. Utilizing the LabChip 3000 mobility shift technology (Caliper Life Science), each assay reaction was sampled to determine the level of phosphorylation. This technology is separation-based, allowing direct detection of fluorescently labeled substrates and products. Separations are controlled by a combination of vacuum pressure and electric field strength optimized for each peptide substrate. […] Compounds were added to a 384-well plate. […] Enzyme concentrations and incubation times were optimized for each new enzyme preps and were modified slightly over time to ensure 20% to 30% phosphorylation. […] The assay plates were placed on a Caliper Life Science LC3000 instrument, and each well was sampled using appropriate separation conditions to measure the unphosphorylated and phosphorylated peptide. The data was collected using the HTS Well Analyzer software from Caliper Life Sciences. […] The percent effect at each compound concentration was calculated based on the positive and negative control well contained within each assay plate (Equation 2). […] The percent effect was plotted against the compound concentration compound. […] Where max is the maximum asymptote (complete inhibition), min is the minimum asymptote (no inhibition) and s is the slope factor.

Chain of JAK1 (P23458 875-1153): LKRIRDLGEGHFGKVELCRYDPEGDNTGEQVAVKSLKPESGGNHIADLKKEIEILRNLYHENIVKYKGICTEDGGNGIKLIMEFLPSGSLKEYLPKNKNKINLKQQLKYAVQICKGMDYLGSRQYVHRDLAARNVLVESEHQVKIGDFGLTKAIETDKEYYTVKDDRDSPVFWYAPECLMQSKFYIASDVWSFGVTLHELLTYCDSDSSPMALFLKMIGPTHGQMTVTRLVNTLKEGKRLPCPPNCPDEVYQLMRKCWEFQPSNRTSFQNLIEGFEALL
Chain of JAK2 (O60674 849-1124): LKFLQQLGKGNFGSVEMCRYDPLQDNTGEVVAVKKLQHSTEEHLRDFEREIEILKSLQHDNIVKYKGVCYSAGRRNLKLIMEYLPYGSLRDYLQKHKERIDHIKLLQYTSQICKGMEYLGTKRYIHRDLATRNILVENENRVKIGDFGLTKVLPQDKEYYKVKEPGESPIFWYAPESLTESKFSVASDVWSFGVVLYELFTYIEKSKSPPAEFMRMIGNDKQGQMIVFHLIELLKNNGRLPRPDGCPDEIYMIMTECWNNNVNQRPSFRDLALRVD
Chain of JAK3 (P52333 822-1111): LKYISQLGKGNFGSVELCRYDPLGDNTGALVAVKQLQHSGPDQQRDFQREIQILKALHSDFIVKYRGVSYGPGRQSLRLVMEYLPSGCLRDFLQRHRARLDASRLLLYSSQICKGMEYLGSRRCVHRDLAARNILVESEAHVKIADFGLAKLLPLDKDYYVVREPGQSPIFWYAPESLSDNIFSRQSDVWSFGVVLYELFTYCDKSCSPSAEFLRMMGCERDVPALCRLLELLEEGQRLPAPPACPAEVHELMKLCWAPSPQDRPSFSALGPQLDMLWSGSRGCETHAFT
Chain of TYK2 (P29597 897-1176): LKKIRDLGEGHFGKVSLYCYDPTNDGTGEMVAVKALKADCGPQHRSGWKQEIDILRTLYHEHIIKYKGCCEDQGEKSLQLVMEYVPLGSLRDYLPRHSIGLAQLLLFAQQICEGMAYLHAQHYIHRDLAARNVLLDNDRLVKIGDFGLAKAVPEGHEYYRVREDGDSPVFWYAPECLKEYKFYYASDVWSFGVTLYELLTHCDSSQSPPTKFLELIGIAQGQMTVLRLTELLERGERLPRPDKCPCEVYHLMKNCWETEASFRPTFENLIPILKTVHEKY

Row | SMILES | IC50 (JAK2) [nM] | IC50 (JAK3) [nM] | IC50 [1] [nM] | IC50 (TYK2) [nM] | IC50 (JAK1) [nM]
1 | Cn1cc(-c2cn3nccc3c(-c3cnn([C@]4(CC#N)C[C@H](C#N)C4)c3)n2)cn1 [Example 19, (1s,3s)-3-(Cyanomethyl)-3-(4-(6-(1-methyl-1H-pyrazol-4-yl)pyrazolo[1,5-a]pyrazin-4-yl)-1H-pyrazol-1-yl)cyclobutane-1-carbonitrile] | – | – | 28 | – | –
2 | Cn1cc(-c2cn3nccc3c(-c3cnn([C@]4(CC#N)C[C@@H](C#N)C4)c3)n2)cn1 [Example 20, (1r,3r)-3-(Cyanomethyl)-3-(4-(6-(1-methyl-1H-pyrazol-4-yl)pyrazolo[1,5-a]pyrazin-4-yl)-1H-pyrazol-1-yl)cyclobutane-1-carbonitrile] | – | – | 50 | – | –
3 | N#CC[C@]1(n2cc(-c3nc(-c4cc(C(N)=O)no4)cn4nccc34)cn2)C[C@H](C#N)C1 [Example 29, 5-(4-(1-((1r,3r)-3-Cyano-1-(cyanomethyl)cyclobutyl)-1H-pyrazol-4-yl)pyrazolo[1,5-a]pyrazin-6-yl)isoxazole-3-carboxamide] | 3040 | > 10000 | – | 352 | 3930
4 | CO[C@H]1C[C@](CC#N)(n2cc(-c3nc(-c4cn(C)nc4CO)cn4nccc34)cn2)C1 [Example 31, 2-((1r,3s)-1-(4-(6-(3-(Hydroxymethyl)-1-methyl-1H-pyrazol-4-yl)pyrazolo[1,5-a]pyrazin-4-yl)-1H-pyrazol-1-yl)-3-methoxycyclobutyl)acetonitrile] | 324 | > 10000 | – | 38 | > 9860
5 | Cn1cc(-c2cn3nccc3c(-c3cnn([C@]4(CC#N)C[C@@H](C#N)C4)c3)n2)nn1 [Example 33, (1r,3r)-3-(Cyanomethyl)-3-(4-(6-(1-methyl-1H-1,2,3-triazol-4-yl)pyrazolo[1,5-a]pyrazin-4-yl)-1H-pyrazol-1-yl)cyclobutane-1-carbonitrile] | 444 | > 10000 | – | 52 | 8720
6 | Cc1cc2c(-c3cnn([C@]4(CC#N)C[C@@H](C#N)C4)c3)nc(-c3cnn(C)c3)cn2n1 [Example 36, (1r,3r)-3-(Cyanomethyl)-3-(4-(2-methyl-6-(1-methyl-1H-pyrazol-4-yl)pyrazolo[1,5-a]pyrazin-4-yl)-1H-pyrazol-1-yl)cyclobutane-1-carbonitrile] | 755 | > 10000 | – | 1600 | 3520

The remaining lines, values ahead:

Row | IC50 (JAK2) [nM] | IC50 (JAK3) [nM] | IC50 [1] [nM] | IC50 (TYK2) [nM] | IC50 (JAK1) [nM] | SMILES
7 | 40 | > 9790 | 162 | – | – | N#CC[C@]1(n2cc(-c3nc(-c4cc(CO)on4)cn4nccc34)cn2)C[C@@H](C#N)C1 [Example 1, (1s,3s)-3-(Cyanomethyl)-3-(4-(6-(5-(hydroxymethyl)isoxazol-3-yl)pyrazolo[1,5-a]pyrazin-4-yl)-1H-pyrazol-1-yl)cyclobutane-1-carbonitrile]
8 | 37 | 6680 | 41 | 7 | 250 | Cn1cc(-c2cn3nccc3c(-c3cnn(C4(CC#N)CN(CC#N)C4)c3)n2)cn1 [Example 7, 2,2′-(3-(4-(6-(1-Methyl-1H-pyrazol-4-yl)pyrazolo[1,5-a]pyrazin-4-yl)-1H-pyrazol-1-yl)azetidine-1,3-diyl)diacetonitrile]
9 | 158 | > 10000 | – | 21 | 713 | Cc1cc(-c2cn3nccc3c(-c3cnn([C@]4(CC#N)C[C@@H](C#N)C4)c3)n2)n[nH]1 [Example 26, (1r,3r)-3-(Cyanomethyl)-3-(4-(6-(5-methyl-1H-pyrazol-3-yl)pyrazolo[1,5-a]pyrazin-4-yl)-1H-pyrazol-1-yl)cyclobutane-1-carbonitrile]
10 | 249 | > 10000 | – | 27 | 1360 | CO[C@H]1C[C@](CC#N)(n2cc(-c3nc(-c4cc(CO)[nH]n4)cn4nccc34)cn2)C1 [Example 28, 2-((1r,3s)-1-(4-(6-(5-(Hydroxymethyl)-1H-pyrazol-3-yl)pyrazolo[1,5-a]pyrazin-4-yl)-1H-pyrazol-1-yl)-3-methoxycyclobutyl)acetonitrile]
11 | 19 | 3260 | – | 11 | 96 | Cn1cc(-c2cn3nccc3c(-c3cnn([C@]4(CC#N)C[C@](C)(C#N)C4)c3)n2)cn1 [Example 34, (1s,3s)-3-(Cyanomethyl)-1-methyl-3-(4-(6-(1-methyl-1H-pyrazol-4-yl)pyrazolo[1,5-a]pyrazin-4-yl)-1H-pyrazol-1-yl)cyclobutane-1-carbonitrile]
12 | 268 | > 10000 | – | 136 | 1920 | Cn1cc(-c2cn3nccc3c(-c3cnn([C@]4(CC#N)C[C@@](C)(C#N)C4)c3)n2)cn1 [Example 35, (1r,3r)-3-(Cyanomethyl)-1-methyl-3-(4-(6-(1-methyl-1H-pyrazol-4-yl)pyrazolo[1,5-a]pyrazin-4-yl)-1H-pyrazol-1-yl)cyclobutane-1-carbonitrile]
13 | 166 | > 10000 | – | 32 | 3490 | Cn1cc(-c2cn3nccc3c(-c3cnn([C@]4(CC#N)C[C@@H](C#N)C4)c3)n2)c(=O)[nH]1 [Example 37, (1r,3r)-3-(Cyanomethyl)-3-(4-(6-(1-methyl-3-oxo-2,3-dihydro-1H-pyrazol-4-yl)pyrazolo[1,5-a]pyrazin-4-yl)-1H-pyrazol-1-yl)cyclobutane-1-carbonitrile]
